The source of these data is US20100130604A1, “USE OF ROSMARINIC ACID IN MANUFACTURE OF MEDICAMENTS FOR TREATING OR PREVENTING HEPATIC AND RENAL DISEASES” (SHANGDONG LUYE NATURAL DRUG RESEARCH AND DEVELOPMENT CO., …, priority 2006, published 2010).

What all share (format): in vivo, Sprague Dawley rats
Assay [1] has as its system renal interstitial fibrosis in rats. Put plainly: Renal interstitial fibrosis in rats with unilateral urethral obstruction. Conditions: day 10. The method, then:
130 rats were randomly divided into 13 groups, namely, a sham operation group, a model group, benazapril p.o. Group at 10 mg/kg, RA i.v. groups at 2.5 mg/kg, 5 mg/kg, 25 mg/kg, 75 mg/kg, and 150 mg/kg of RA, and RA p.o. groups at 2.5 mg/kg, 5 mg/kg, 25 mg/kg, 150 mg/kg, and 300 mg/kg of RA. The animals were acclimated for a week before they were all anaesthetised with an i.p. dose of 10% chloral hydrate at 3.0mL/kg and placed on the operating table in right lateral position. The rats were shaved and the operating area was disinfected using iodine tincture and 75% ethanol. The left urethra was exposed and isolated after a left lateral incision was made on the abdominal area and skin, muscles and all other layers of the abdominal wall were incised sequentially. In the sham group, the left urethra was only isolated without being ligated or cut off. In all other animals, the left urethra was ligated with No. 4 suture and obstructed followed by closure of the abdominal wall layer by layer. The animals were anaesthetised again with 10% chloral hydrate 10 days later, blood was collected and serum was separated to determine FN levels. The left kidney was removed after thorough rinsing and then fixed in 4% paraformaldehyde buffer. HYP level was determined according to instructions provided with the kit.

For assay [2], the system named is rats with diabetic nephropathy. In words: Diabetic nephropathy in rats (left nephrectomy + streptozocin). Particulars: p.o. 10 mg/kg; for creatinine: serum. The method, then: After 1 week-long acclimation period, animals were anaesthetised with 10% chloral hydrate (0.35 mL/100 g, i.p.) and nephrectomy was exercised to the left kidney. One week later, a single dose of 1% of streptozocin solution was i.v. injected to all animals at 60 mg/kg. After 72h, blood was collected from eyepit to test blood glucose level with the above-mentioned kit. The model was considered successful when blood glucose level >16.7 mmol/L. When the model is established, 130 rats were randomly divided into 13 groups, with 10 animals in each group, namely, a normal control group, a model group, benzanapril p.o. Group at 10 mg/kg, RA i.v. groups at 2.5 mg/kg, 5 mg/kg, 25 mg/kg, 75 mg/kg, and 150 mg/kg of RA, and RA p.o. groups at 5 mg/kg, 10 mg/kg, 50 mg/kg, 150 mg/kg, and 300 mg/kg of RA. The drugs were administered once every day. Blood was collected from eyepit at week 8 and week 16 to determine serum levels of creatinine and urea nitrogen. Urinary protein excretion within 24 hours was also studied. The animals were sacrificed 24 hours after the last dose and kidney removed for histopathological examination.

Assay [3] relates to CRF rats. In words: CRF induced by 5/6 nephrectomy in rats. Conditions: 8 weeks; p.o. 12 mg/kg. The method, then: 130 rats were randomly divided into 13 groups, with 10 animals in each group, namely, a normal control group, a model group, methylprednisolone p.o. Group at 12 mg/kg, RA i.v. groups at 2.5 mg/kg, 5 mg/kg, 25 mg/kg, 75 mg/kg, and 150 mg/kg of RA, and RA p.o. groups at 5 mg/kg, 10 mg/kg, 50 mg/kg, 150 mg/kg, and 300 mg/kg of RA. Apart from the normal control group, all other rats were induced to CRF by cutting off 5/6 of the kidneys. 2/3 of the left kidney was removed in the first operation, and one week later the right kidney in the second operation. Dosing started one week after the second operation via p.o. or i.p. routes. Blood was collected from eyepit at week 4 and week 8 to determine creatinine and urea nitrogen levels in sera. 5 animals in each group were sacrificed at week 4 and […] were sacrificed at the end of the study. Pathological changes in renal function were observed through HE and PAS staining of histopathological sections.

The test system of assay [4] is CRF rats. Put plainly: CRF induced by 5/6 nephrectomy in rats. Conditions: p.o. 12 mg/kg.
The next assay relates to hepatofibrosis in rats. Put plainly: CCl4-induced hepatofibrosis in chronic hepatitis in rats. Conditions: hepatic; 8 mg/kg, 6 weeks. Here is the method:
120 rats were randomly divided into 12 groups, with 10 in each group, namely, a normal control group, a model group, […] Apart from the normal control group, all rats were s.c. injected 0.3 ml of 40% solution of CC14 in oil per 100 g of body weight once every 3 days for 6 weeks. Animals in the normal control group were s.c. injected 0.3 ml/100 g body weight of oil vehicle following the same schedule as the experimental groups. First dose was doubled for all animals. Six weeks later, drugs were continuously administered to animals in each group for 6 weeks. After the administration was completed, all animals were anaesthetised with i.p. injection of 20% ethyl carbamate solution (Beijing Tongxian District Yucai Fine Chemicals). Blood was collected from abdominal aorta. Hepatic lobule tissue was removed, part of which was fixed with 10% neutral foinialin solution and made into wax blocks within 24-48 hours. […] Serum HA, LN, Pc III levels and hepatic HYP level were determined according to the respective kit instructions.

With `CCOC(=O)[C@H](CCc1ccccc1)N[C@H]1CCc2ccccc2N(CC(=O)O)C1=O` [Benazapril, reference compound], in assay [1] (left kidney, benazapril p.o. 10 mg/kg), the HYP worked out at 500 ± 132 µg/g. The same compound returned an FN in assay [1] (serum, p.o. 10 mg/kg) of 17.0 ± 3.6 mg/L. In assay [2] (8 weeks), the “24 h urinary protein excretion” value is on record as 19.29 ± 2.11 mg/24 h, the Blood glucose stood at 21.11 ± 4.55 mmol/L, the Serum urea nitrogen is listed as 9.21 ± 1.62 mg/dL and the creatinine was 0.57 ± 0.07 mg/dL. Moreover, in assay [2] (16 weeks), the “24 h urinary protein excretion” value was found to be 61.76 ± 6.75 mg/24 h, the Blood glucose worked out at 22.11 ± 4.55 mmol/L, the Serum urea nitrogen stood at 18.21 ± 3.25 mg/dL and the creatinine turned out to be 1.15 ± 0.13 mg/dL.

For `C[C@H]1C[C@@H]2[C@H]([C@@H](O)C[C@@]3(C)[C@H]2CC[C@]3(O)C(=O)CO)[C@@]2(C)C=CC(=O)C=C12` [Methylprednisolone, reference compound], the Serum urea nitrogen in the assay on CRF rats [3] is 18.21 ± 4.25 mg/dL; in the assay on CRF rats [4] (4 weeks), 15.21 ± 3.25 mg/dL. The Serum creatinine turned out to be 1.33 ± 0.13 mg/dL with CRF rats [4] (4 weeks) and 1.25 ± 0.17 mg/dL in the assay with CRF rats [4] (8 weeks).

`CN(CCOc1ccc(CC2SC(=O)NC2=O)cc1)c1ccccn1` (stereo not drawn) [Rosiglitazone, reference compound] showed an HYP with hepatofibrosis in rats of 1259 ± 153 µg/L.
